Experimental data from paper PMC11435058, “Synthesis of New Thiazole-Privileged Chalcones as Tubulin Polymerization Inhibitors with Potential Anticancer Activities” (Pharmaceuticals, 2024).

Key:
[1] = test system: SK-OV-3; test: NCI-60 anticancer screen (SRB; single dose and five doses); details: Homo sapiens, SK-OV-3, 48 h, read-out: Growth Percentage
[2] = test system: SF-268; test: as above; details: Homo sapiens, SF-268, 48 h, read-out: Growth Percentage
[3] = test system: SNB-19; test: cells; details: Homo sapiens, SNB-19, 48 h, read-out: Growth Percentage
[4] = test system: HCT-15; test: NCI-60 anticancer screen (SRB; single dose and five doses); details: Homo sapiens, HCT-15, 48 h, read-out: Growth Percentage
[5] = test system: OVCAR-3; test: cells; details: Homo sapiens, OVCAR-3, 48 h, read-out: Growth Percentage
[6] = test system: SK-MEL-2; test: NCI-60 anticancer screen (SRB; single dose and five doses); details: Homo sapiens, SK-MEL-2, 48 h, read-out: Growth Percentage
[7] = test system: RXF 393; test: as above; details: Homo sapiens, RXF 393, 48 h, read-out: Growth Percentage
[8] = test system: SNB-75; test: as above; details: Homo sapiens, SNB-75, 48 h, read-out: Growth Percentage
[9] = test system: HS 578T; test: as above; details: Homo sapiens, 48 h, read-out: Growth Percentage
[10] = test system: M14; test: as above; details: Homo sapiens, M14, 48 h, read-out: Growth Percentage
[11] = test system: UO-31; test: as above; details: Homo sapiens, UO-31, 48 h, read-out: Growth Percentage
[12] = test system: HOP-62; test: as above; details: Homo sapiens, HOP-62, 48 h, read-out: Growth Percentage
[13] = test system: SR; test: as above; details: Homo sapiens, 48 h, read-out: Growth Percentage
[14] = test system: BT-549; test: as above; details: Homo sapiens, BT-549, 48 h, read-out: Growth Percentage
[15] = test system: SF-539; test: as above; details: Homo sapiens, SF-539, 48 h, read-out: Growth Percentage
[16] = test system: NCI-H322M; test: as above; details: Homo sapiens, 48 h, read-out: Growth Percentage
[17] = test system: U251; test: as above; details: Homo sapiens, U-251, 48 h, read-out: Growth Percentage
[18] = test system: MALME-3M; test: as above; details: Homo sapiens, 48 h, read-out: Growth Percentage
[19] = test system: A549/ATCC; test: as above; details: Homo sapiens, A549, 48 h, read-out: Growth Percentage
[20] = test system: TK-10; test: as above; details: Homo sapiens, TK-10, 48 h, read-out: Growth Percentage
[21] = test system: OVCAR-4; test: as above; details: Homo sapiens, OVCAR-4, 48 h, read-out: Growth Percentage
[22] = test system: CAKI-1; test: as above; details: Homo sapiens, CAKI-1, 48 h, read-out: Growth Percentage
[23] = test system: MDA-MB-231/ATCC; test: as above; details: Homo sapiens, MDA-MB-231, 48 h, read-out: Growth Percentage
[24] = test system: NCI-H522; test: as above; details: Homo sapiens, NCI-H522, 48 h, read-out: Growth Percentage
[25] = test system: SW-620; test: as above; details: Homo sapiens, SW-620, 48 h, read-out: Growth Percentage
[26] = test system: RPMI-8226; test: as above; details: Homo sapiens, RPMI-8226, 48 h, read-out: Growth Percentage
[27] = test system: MDA-MB-435; test: as above; details: Homo sapiens, MDA-MB-435, 48 h, read-out: Growth Percentage
[28] = test system: NCI-H226; test: as above; details: Homo sapiens, NCI-H226, 48 h, read-out: Growth Percentage
[29] = test system: 786-0; test: as above; details: Homo sapiens, 786-0, 48 h, read-out: Growth Percentage

Structure (SMILES): Cc1[nH]c(=S)sc1C(=O)/C=C/c1ccc(N(C)C)cc1 [2k, (E)-3-(4-(Dimethylamino)Phenyl)-1-(4-Methyl-2-Thioxo-2,3-Dihydrothiazol-5-yl)Prop-2-En-1-One]
- activity at 10 µM [1]: 92.6%
- activity at 10 µM [2]: 99.3%
- activity at 10 µM [3]: 71.2%
- activity at 10 µM [4]: 64.4%
- activity at 10 µM [5]: 82.2%
- activity at 10 µM [6]: 88.9%
- activity at 10 µM [7]: 90.8%
- activity at 10 µM [8]: 96%
- activity at 10 µM [9]: 118%
- activity at 10 µM [10]: 83.2%
- activity at 10 µM [11]: 48.3%
- activity at 10 µM [12]: 86.2%
- activity at 10 µM [13]: 57.4%
- activity at 10 µM [14]: 82.2%
- activity at 10 µM [15]: 88.7%
- activity at 10 µM [16]: 81.1%
- activity at 10 µM [17]: 67.1%
- activity at 10 µM [18]: 79.4%
- activity at 10 µM [19]: 68.1%
- activity at 10 µM [20]: 86.8%
- activity at 10 µM [21]: 51.2%
- activity at 10 µM [22]: 68.6%
- activity at 10 µM [23]: 90.3%
- activity at 10 µM [24]: 58.9%
- activity at 10 µM [25]: 89.9%
- activity at 10 µM [26]: 41.5%
- activity at 10 µM [27]: 58.4%
- activity at 10 µM [28]: 88.3%
- activity at 10 µM [29]: 91.7%
